Data: publication PMC5352362, “Molecular and functional evaluation of a novel HIF inhibitor, benzopyranyl 1,2,3-triazole compound” (Oncotarget, 2016)

Assays:
[1] = test system: secreted VEGF; assay: VEGF ELISA of A549 culture media; format: cell-based, human; conditions: A549 cells, 10 and 100 nM, 16 h
Excerpt: (§1) As HIF-1α regulates transcription of its target genes, which are involved in angiogenesis, glucose metabolism, and metastasis in tumor progression, we determined the effects of Compound 12 on HIF-1 target gene expression at the mRNA level by semiquantitative RT-PCR. […] Thus, we checked secreted VEGF protein levels in culture media via ELISA.
(§2) Figure 5 Compound 12 suppressed HIF-1α target gene expression, and confirmation of in vitro results via determination of effects on angiogenesis in vivo (A) A549 cells were treated with Compound 12 (at concentrations of 0 nM, 1 nM, 10 nM, and 100 nM) for 16 h. The mRNA levels of HIF-1α target genes were determined by semiquantitative RT-PCR. β-actin was used as an internal control. D. DMSO vehicle control. N, normoxia; H, hypoxia. […] Media supernatant was collected, and secreted VEGF was determined by ELISA after removal of cellular debris. […] Cells that migrated through the membrane (8 μm pore size) were stained with hematoxylin and eosin, pictured as shown in upper panel, and counted (graph). *P < 0.05, **P < 0.01 versus VEGF-treated control. […] (F) Compound 12 (0.1 μg and 1 μg dosages) and retinoic acid (RA, positive control) were applied to the ED 4.5 CAM for two days, neovessel formation from the large vessels was observed, and percentages of positive angiogenic eggs (from total eggs tested) were calculated. […]

[2] = biological target: HIF-1α (Homo sapiens, UniProt Q16665); assay: Western blot of HIF-1α protein in hypoxic A549 cells; format: cell-based; conditions: hypoxia 16 h
Sequence of HIF-1α (Q16665 whole entry): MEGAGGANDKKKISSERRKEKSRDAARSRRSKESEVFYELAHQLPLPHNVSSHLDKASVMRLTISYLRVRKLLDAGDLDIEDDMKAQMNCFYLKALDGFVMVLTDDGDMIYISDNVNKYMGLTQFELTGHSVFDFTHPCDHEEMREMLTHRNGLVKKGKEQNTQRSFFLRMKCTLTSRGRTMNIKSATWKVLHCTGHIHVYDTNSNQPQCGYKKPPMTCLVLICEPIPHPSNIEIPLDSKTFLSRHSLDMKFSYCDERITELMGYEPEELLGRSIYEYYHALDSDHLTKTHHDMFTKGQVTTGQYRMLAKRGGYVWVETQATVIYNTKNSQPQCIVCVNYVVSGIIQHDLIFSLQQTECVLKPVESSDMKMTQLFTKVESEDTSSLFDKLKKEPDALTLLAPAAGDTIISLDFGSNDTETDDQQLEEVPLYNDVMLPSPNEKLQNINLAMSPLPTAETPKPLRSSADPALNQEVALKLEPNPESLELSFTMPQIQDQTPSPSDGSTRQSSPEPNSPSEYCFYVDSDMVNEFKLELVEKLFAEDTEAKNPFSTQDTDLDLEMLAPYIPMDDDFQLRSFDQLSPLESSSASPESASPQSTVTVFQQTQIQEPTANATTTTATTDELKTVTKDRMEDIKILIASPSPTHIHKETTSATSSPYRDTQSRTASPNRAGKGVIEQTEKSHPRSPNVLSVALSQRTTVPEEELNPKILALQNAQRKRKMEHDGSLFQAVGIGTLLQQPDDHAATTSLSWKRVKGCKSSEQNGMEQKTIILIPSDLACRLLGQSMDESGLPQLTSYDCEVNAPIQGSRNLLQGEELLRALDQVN
Procedure: Next, we evaluated the inhibitory effects of the nine aforementioned test compounds on HIF-1α protein accumulation by western blot analyses in A549 cells experiencing hypoxic conditions.
Treatment was under hypoxic conditions for 16 h. Cells were then lysed for western blot analysis, which was conduced with antibodies against HIF-1α and β-actin. Expression levels were quantified by ImageJ (NIH, Bethesda, MO, USA) and graphed. **P < 0.01 versus 1% O2 DMSO (D)-treated control group.
(B, C) After HEK-293 cells (B) and A549 cells (C) were treated with Compound 12 (at concentrations of 0 nM, 0.1 nM, 1 nM, 10 nM, 100 nM, and 1000 nM) under hypoxic conditions for 16 h, expression of HIF-1α was determined by western blot analysis and then graphed. (D, E) Half maximal inhibitory concentration (IC50) values were calculated using GraphPad Prism software, using the quantified HIF-1α levels determined in B and C.
HEK-293 cells and A549 cells were treated with Compound 12, at 0.1–1000 nM concentrations, under hypoxic conditions for 16 h.
Proteins extracted from cells using PRO-PREP (iNtRon Biotech, South Korea) were separated by SDS-PAGE and transferred to a nitrocellulose membrane (Whatman, Maidstone, UK). Membranes were blocked with 5% skim milk in Tris-buffered saline (TBS) containing 0.1% Tween-20 for 30 min at room temperature (RT). After blocking, membranes were incubated with specific primary antibodies overnight at 4°C, followed by incubation with horseradish peroxidase-conjugated mouse- or rabbit-IgG for 1 h at RT. Antibody binding was detected using an enhanced chemiluminescence (ECL) kit (BioRad, Hercules, CA) according to the manufacturer's instructions. Primary antibodies against the following factors were used: HIF-1α (BD Biosciences, San Diego, CA, USA), HIF-1β (Cell Signaling Technology, Danvers, MA, USA), β-actin (Santa Cruz Biotechnology, Santa Cruz, CA, USA), hydroxylated-HIF-1α (P564) (Cell Signaling Technology, Danvers, MA, USA), and PHD2 (Abcam, Cambridge, UK).

[3] = test system: HIF-1 (5xHRE-Luc reporter in HEK-293 cells); assay: Dual-luciferase HRE reporter assay under hypoxia; format: cell-based; conditions: Homo sapiens, HEK293, hypoxia 1% O2, 24 h, compared to hypoxic control, read-out: inhibition of hypoxia-induced HRE Luc reporter activity (HIF-1α transactivation)
Procedure: To identify active inhibitors of HIF-1α, a cell-based reporter assay was performed. HEK-293 cells were co-transfected with pGL3-5xHRE-Luc plasmid harboring five copies of hypoxia responsive element (HRE) from the VEGF gene promoter, and with pRL-SV40 encoding Renilla genes. The HRE-containing promoter of the HIF-1 target genes is regulated by HIF-1 activation. Transfected cells were treated with chemical compounds at 1 μM and were exposed to hypoxic conditions (1% O2) for 24 h, and then were assayed. Echinomycin (E), a well-known HIF-1α inhibitor, was used as a positive control. Compared to normoxic control conditions, hypoxia increased this luciferase reporter's activity by approximately three-fold.
Figure 1 Screening of 144 compounds from an in-house chemical library for inhibition of HIF-1 activity HEK-293 cells were co-transfected with luciferase reporter plasmids (pGL3-HRE-luciferase) and Renilla vector (pRL-SV40). Cells were exposed to hypoxic conditions in the presence or absence of chemicals for 24 h, and were then lysed for assays of luciferase activity. […]
HEK-293 cells were seeded onto 96-well plates at a density of 5 × 10^3 cells/well, and allowed to attach for 24 h. […] Firefly luminescence was measured using a microplate reader (Infinite M200 Pro, TECAN, Männedorf, Switzerland). […] Renilla luminescence was measured using a microplate reader. […]

[4] = test system: HIF-1α target genes (VEGF, ALDOC, CA9, GLUT1, CXCR4); assay: Semiquantitative RT-PCR of HIF-1α target genes in A549 cells; format: cell-based, human; conditions: 1–100 nM, 16 h, hypoxia
Excerpt: as §1, §2

Structure (SMILES): COc1ccc(-c2cn(CC3(C)C=Cc4cc([N+](=O)[O-])ccc4O3)nn2)cc1 (stereo not drawn) [Compound 12, 4-(4-methoxyphenyl)-1-((2-methyl-6-nitro-2H-chromen-2-yl)methyl)-1H-1,2,3-triazole]
- hypoxia-induced VEGF secretion [1]: significantly suppressed hypoxia-induced VEGF secretion, in a dose-dependent manner
- inhibition at 0.001 µM ([2]; 1 nM, read-out: downregulation of HIF-1α protein expression): ~50%
- inhibitory effect on HIF-1α accumulation (western blot) ([2]; 1 μM): most potent inhibitory effect
- inhibition at 1 µM ([2]; 1 μM, compared to hypoxic control, read-out: reduction of HIF-1α protein levels): 80%
- inhibition at 1 µM [3]: 50%
- mRNA levels of VEGF, ALDOC, CA9, GLUT1 and CXCR4 [4]: suppressed the mRNA levels
